Among the data in PubChem BioAssay (NCI) are TGI values, retold here.

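Protocol summary: plate cells (96-well), add compound at 5 concentrations, incubate 48 h, interpolate endpoints linearly. Definition used: TGI = concentration required for complete inhibition of growth.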

Among the test systems are HCT-116 colon; IGROV1 ovarian; KM12 colon; MALME-3M melanoma; MDA-MB-435; OVCAR-5 ovarian; SK-MEL-28 melanoma; U251 CNS; UACC-257 melanoma; SF-539 CNS.
Assay in all cases: NCI-60 cell line screen, 48 h

For the molecule `COc1cc(C2c3cc4c(cc3C(O)C3CCC(=O)N23)OCO4)cc(OC)c1OC` (stereo not given), the TGI is above 100 µM with HCT-116 colon; above 100 µM with IGROV1 ovarian; above 100 µM in the test with KM12 colon; above 100 µM in the test with MALME-3M melanoma; 18 µM with MDA-MB-435; above 100 µM in the test with OVCAR-5 ovarian. The figures for the TGI with SK-MEL-28 melanoma, with U251 CNS and in the test on UACC-257 melanoma were above 100 µM, 82.8 µM and above 100 µM, respectively.
Turning to `O=S(=O)(c1ccccc1)n1c(C(O)c2ccncc2)cc2ccccc21` (stereo not given), the TGI with HCT-116 colon, in the test on IGROV1 ovarian, with KM12 colon, with MDA-MB-435, in the test with OVCAR-5 ovarian and with SF-539 CNS was above 100 µM in each case. Further, the TGI with SK-MEL-28 melanoma is above 100 µM; in the test on U251 CNS, above 100 µM; with UACC-257 melanoma, 38.9 µM.
On to `CC(=O)Nc1ccc(S(=O)(=O)Nc2nnc(S(N)(=O)=O)s2)cc1`, for which the TGI in the test on HCT-116 colon, with KM12 colon, in the test on MALME-3M melanoma, in the test on MDA-MB-435, in the test on OVCAR-5 ovarian and in the test with SF-539 CNS was above 100 µM each time. Besides, in the test with U251 CNS, the TGI is above 100 µM.
`c1ccc2c(c1)c1c(n2CCOCCN2CCCCC2)CCCC1`: the TGI in the test on HCT-116 colon stood at 25 µM; with IGROV1 ovarian, 28.1 µM; with KM12 colon it was 26.7 µM; with MALME-3M melanoma, 26.7 µM; in the test with MDA-MB-435, 26.6 µM; with OVCAR-5 ovarian it was 25.7 µM. Moreover, the TGI in the test on SF-539 CNS was determined as 31.7 µM; in the test with SK-MEL-28 melanoma it was 58 µM; in the test on U251 CNS it was 32.7 µM.
`CCCCC/C=C1/CC(CO)(COC(=O)CC(C(C)C)C(C)C)OC1=O` (stereo not given): the TGI with HCT-116 colon was determined as 28 µM; in the test on IGROV1 ovarian, 31.7 µM; with KM12 colon, 30.5 µM; with MALME-3M melanoma it was 18.2 µM; in the test with MDA-MB-435, 19 µM; with OVCAR-5 ovarian, 29.7 µM. In addition, the TGI stood at 26.7 µM with SK-MEL-28 melanoma, 27.6 µM in the test on U251 CNS and 47.4 µM in the test on UACC-257 melanoma.
On to `CCOC(=O)C(=[N+]=[N-])C(=O)C[N+]12CCN(CC1)CC2`, for which the TGI with HCT-116 colon, in the test on IGROV1 ovarian, with KM12 colon, with MALME-3M melanoma, in the test on MDA-MB-435 and in the test on OVCAR-5 ovarian was above 100 µM throughout. Further, the TGI with SK-MEL-28 melanoma, with U251 CNS and in the test with UACC-257 melanoma was above 100 µM throughout.
In the case of `CC(C)OC(=O)c1ccc(NCC2=CC(=O)C=CC2=O)cc1Cl`, the TGI was above 53.2 µM in the test with HCT-116 colon; 30.5 µM with IGROV1 ovarian; 33.2 µM in the test on KM12 colon; 35.1 µM in the test on MDA-MB-435; 70.1 µM in the test on OVCAR-5 ovarian; 37.5 µM with SF-539 CNS. In addition, the TGI in the test with SK-MEL-28 melanoma was 56.5 µM; in the test with U251 CNS, 54.9 µM; with UACC-257 melanoma it was 33.9 µM.
On to `O=C1C=Cc2c(Cl)sc(Cl)c21`, for which the TGI with HCT-116 colon was 2.33 µM; in the test with IGROV1 ovarian, 3.09 µM; with MDA-MB-435, 5.31 µM; with OVCAR-5 ovarian, 24.8 µM; with SK-MEL-28 melanoma, 3.97 µM; with U251 CNS, above 100 µM. The same molecule yielded a TGI in the test on UACC-257 melanoma of 4.78 µM.
Turning to `Cc1cc(O)c(C(C)C)cc1NC(=O)Nc1cccc2ccccc12`, the TGI in the test on HCT-116 colon was 36.6 µM; with IGROV1 ovarian, 37.7 µM; with KM12 colon, 38.8 µM; in the test on MALME-3M melanoma, 40.3 µM; in the test with MDA-MB-435, 31.1 µM; with OVCAR-5 ovarian it was 56.4 µM. For the same molecule, the TGI in the test with SK-MEL-28 melanoma is 55.8 µM; with U251 CNS, 31 µM; in the test on UACC-257 melanoma, 33.4 µM.
Take `CO/C(=N\N=C\c1ccc(Cl)cc1)c1ccncc1`: the TGI with HCT-116 colon, in the test with IGROV1 ovarian, in the test with KM12 colon, in the test on MALME-3M melanoma, in the test on OVCAR-5 ovarian and in the test with SF-539 CNS was above 100 µM throughout. Further, the TGI with SK-MEL-28 melanoma, with U251 CNS and in the test on UACC-257 melanoma was above 100 µM in each case.
With `CN(C)N=Nc1ccc([N+](=O)[O-])cc1C(N)=O`, the TGI with HCT-116 colon, in the test on IGROV1 ovarian, in the test with KM12 colon, with MALME-3M melanoma, with OVCAR-5 ovarian and in the test with SF-539 CNS was above 100 µM each time. Besides, the TGI in the test on SK-MEL-28 melanoma, in the test on U251 CNS and with UACC-257 melanoma was above 100 µM each time.
As for `CC(C)(C)C#C[P+](c1ccccc1)(c1ccccc1)c1ccccc1`, the TGI in the test on HCT-116 colon amounted to 0.95 µM; with IGROV1 ovarian it was 2.23 µM; with KM12 colon, 0.687 µM; in the test with MALME-3M melanoma it was 1.68 µM; in the test with OVCAR-5 ovarian it was 2.4 µM; in the test on SF-539 CNS it was 1.39 µM. The TGI was found to be 1.46 µM with SK-MEL-28 melanoma, 1.32 µM with U251 CNS and 2.07 µM in the test with UACC-257 melanoma.
Take `CCSc1ncnc2c(C3OC(CO)C(O)C3O)nsc12` (stereo not given): the TGI in the test with HCT-116 colon, in the test on IGROV1 ovarian, in the test with MALME-3M melanoma, with MDA-MB-435, with OVCAR-5 ovarian and in the test with SF-539 CNS was above 100 µM each time. For the same molecule, the TGI with SK-MEL-28 melanoma and with U251 CNS was above 100 µM each time.
As to `Oc1ccc2c(c1)-c1c(c3cc(O)ccc3n1CCN1CCOCC1)CC2`, the TGI is 44.8 µM with HCT-116 colon; above 100 µM in the test on IGROV1 ovarian; above 100 µM with KM12 colon; 48.8 µM in the test with MDA-MB-435; above 100 µM in the test on OVCAR-5 ovarian; 76 µM in the test on SF-539 CNS. Besides, the TGI in the test with SK-MEL-28 melanoma was 61.9 µM; in the test on U251 CNS it was 49 µM; in the test with UACC-257 melanoma, above 100 µM.
Take `COc1cc2c(cc1OC)C1CN3C(=O)CCC3C(O)C1c1cc(OC)c(OC)cc1-2` (stereo not given): the TGI in the test with HCT-116 colon, with IGROV1 ovarian, with KM12 colon, in the test on MALME-3M melanoma, with MDA-MB-435 and in the test on OVCAR-5 ovarian was above 100 µM in each case. The TGI in the test with SK-MEL-28 melanoma, with U251 CNS and in the test on UACC-257 melanoma was above 100 µM in each case.
